{"source": "patent US20130029928A1", "about": "(priority 2010, published 2013)", "assay": "Phase I study CXR1002-001: plasma pharmacokinetics (LC-MS/MS)", "type": "in vivo, human", "conditions": "human, plasma, oral, 600 mg, person, plasma, read-out: Concentration; for concentration at 336 h: 336 hr (Day 15); for concentration at 360 h: 360 hr (Day 16); for concentration at 504 h: 504 hr (Day 22); for concentration at 528 h: 528 hr (Day 23); for concentration at 24 h: 24 hr (Day 2); for concentration at 168 h: 168 hr (Day 8)", "source_text": "PK samples, PD (fasting) samples, blood glucose, and blood triglyceride samples, were taken over a 6-week period.\nDose limiting toxicity (DLT) will be based on the toxicity assessments over the first 3-week period of the repeat dosing schedule. PK samples (single blood sample) were taken on the following basis: • Every 6 weeks during the repeat dosing phase • If dosing is interrupted or stopped, samples will be taken at intervals according to patient convenience • PK sampling for safety evaluation may take place at any time, as clinically indicated\nPlasma samples were collected after the single 50 mg dose at the following timepoints: Pre-dose, and then 0.25, 0.5, 0.75, 1, 1.5, 2, 3, 4, 6, 24, 48, and 72 hours after administration and then once weekly at weeks 2, 3, 4, 5, and 6 (days 8, 15, 22, 29, and 36). For patients treated with the weekly repeat dose, plasma samples were collected at the following timepoints: Pre-dose and then 2, 3, 4 and 24 hours after administration for a total of 6 weeks. Thereafter a single sample was collected every 6 weeks for monitoring of exposure during long term treatment. Plasma samples were processed at site and stored at −80° C. prior to batch shipment to the analytical laboratory.", "note": "Like-named read-outs stand apart in the source and are kept apart here."}
{"smiles": "O=C(O)C(F)(F)C(F)(F)C(F)(F)C(F)(F)C(F)(F)C(F)(F)C(F)(F)F", "note": "[CXR1002]", "values": [{"measurement": "concentration at 192 h", "setting": "Patient 021, 600 mg, 192 hr (Day 9)", "value": 479, "unit": "µM"}, {"measurement": "concentration at 336 h", "setting": "Patient 021, 600 mg", "value": 412, "unit": "µM"}, {"measurement": "concentration at 338 h", "setting": "Patient 021, 600 mg", "value": 650, "unit": "µM"}, {"measurement": "concentration at 339 h", "setting": "Patient 021, 600 mg", "value": 653, "unit": "µM"}, {"measurement": "concentration at 340 h", "setting": "Patient 021, 600 mg", "value": 633, "unit": "µM"}, {"measurement": "concentration at 360 h", "setting": "Patient 021, 600 mg", "value": 604, "unit": "µM"}, {"measurement": "concentration at 504 h", "setting": "Patient 021, 600 mg", "value": 605, "unit": "µM"}, {"measurement": "concentration at 506 h", "setting": "Patient 021, 600 mg", "value": 734, "unit": "µM"}, {"measurement": "concentration at 507 h", "setting": "Patient 021, 600 mg", "value": 654, "unit": "µM"}, {"measurement": "concentration at 508 h", "setting": "Patient 021, 600 mg", "value": 722, "unit": "µM"}, {"measurement": "concentration at 528 h", "setting": "Patient 021, 600 mg", "value": 678, "unit": "µM"}, {"measurement": "concentration at 672 h", "setting": "Patient 021, 600 mg, 672 hr (Day 29)", "value": 613, "unit": "µM"}, {"measurement": "concentration at 674 h", "setting": "Patient 021, 600 mg, 674 hr", "value": 681, "unit": "µM"}, {"measurement": "concentration at 675 h", "setting": "Patient 021, 600 mg, 675 hr", "value": 847, "unit": "µM"}, {"measurement": "concentration at 676 h", "setting": "Patient 021, 600 mg, 676 hr", "value": 845, "unit": "µM"}, {"measurement": "concentration at 696 h", "setting": "Patient 021, 600 mg, 696 hr (Day 30)", "value": 799, "unit": "µM"}, {"measurement": "concentration at 840 h", "setting": "Patient 021, 600 mg, 840 hr (Day 36)", "value": 779, "unit": "µM"}, {"measurement": "concentration at 842 h", "setting": "Patient 021, 600 mg, 842 hr", "value": 968, "unit": "µM"}, {"measurement": "concentration at 843 h", "setting": "Patient 021, 600 mg, 843 hr", "value": 928, "unit": "µM"}, {"measurement": "concentration at 844 h", "setting": "Patient 021, 600 mg, 844 hr", "value": 981, "unit": "µM"}, {"measurement": "concentration at 864 h", "setting": "Patient 021, 600 mg, 864 hr (Day 37)", "value": 995, "unit": "µM"}, {"measurement": "concentration at 2 h", "setting": "Patient 022, 600 mg", "value": 193, "unit": "µM"}, {"measurement": "concentration at 3 h", "setting": "Patient 022, 600 mg", "value": 196, "unit": "µM"}, {"measurement": "concentration at 4 h", "setting": "Patient 022, 600 mg", "value": 199, "unit": "µM"}, {"measurement": "concentration at 24 h", "setting": "Patient 022, 600 mg", "value": 157, "unit": "µM"}, {"measurement": "concentration at 168 h", "setting": "Patient 022, 600 mg", "value": 143, "unit": "µM"}, {"measurement": "concentration at 170 h", "setting": "Patient 022, 600 mg", "value": 310, "unit": "µM"}, {"measurement": "concentration at 171 h", "setting": "Patient 022, 600 mg", "value": 270, "unit": "µM"}, {"measurement": "concentration at 172 h", "setting": "Patient 022, 600 mg", "value": 276, "unit": "µM"}, {"measurement": "concentration at 192 h", "setting": "Patient 022, 600 mg, 192 hr (day 9)", "value": 298, "unit": "µM"}, {"measurement": "concentration at 336 h", "setting": "Patient 022, 600 mg", "value": 289, "unit": "µM"}, {"measurement": "concentration at 338 h", "setting": "Patient 022, 600 mg", "value": 433, "unit": "µM"}, {"measurement": "concentration at 339 h", "setting": "Patient 022, 600 mg", "value": 433, "unit": "µM"}, {"measurement": "concentration at 340 h", "setting": "Patient 022, 600 mg", "value": 405, "unit": "µM"}, {"measurement": "concentration at 360 h", "setting": "Patient 022, 600 mg", "value": 427, "unit": "µM"}, {"measurement": "concentration at 504 h", "setting": "Patient 022, 600 mg", "value": 426, "unit": "µM"}, {"measurement": "concentration at 506 h", "setting": "Patient 022, 600 mg", "value": 441, "unit": "µM"}, {"measurement": "concentration at 507 h", "setting": "Patient 022, 600 mg", "value": 562, "unit": "µM"}, {"measurement": "concentration at 508 h", "setting": "Patient 022, 600 mg", "value": 519, "unit": "µM"}, {"measurement": "concentration at 528 h", "setting": "Patient 022, 600 mg", "value": 596, "unit": "µM"}, {"measurement": "concentration at 2 h", "setting": "Patient 023, 600 mg", "value": 208, "unit": "µM"}, {"measurement": "concentration at 3 h", "setting": "Patient 023, 600 mg", "value": 233, "unit": "µM"}, {"measurement": "concentration at 4 h", "setting": "Patient 023, 600 mg", "value": 236, "unit": "µM"}, {"measurement": "concentration at 24 h", "setting": "Patient 023, 600 mg", "value": 221, "unit": "µM"}, {"measurement": "concentration at 168 h", "setting": "Patient 023, 600 mg", "value": 204, "unit": "µM"}, {"measurement": "concentration at 170 h", "setting": "Patient 023, 600 mg", "value": 336, "unit": "µM"}, {"measurement": "concentration at 171 h", "setting": "Patient 023, 600 mg", "value": 337, "unit": "µM"}, {"measurement": "concentration at 172 h", "setting": "Patient 023, 600 mg", "value": 391, "unit": "µM"}, {"measurement": "concentration at 192 h", "setting": "Patient 023, 600 mg, 192 hr (day 9)", "value": 400, "unit": "µM"}, {"measurement": "concentration at 336 h", "setting": "Patient 023, 600 mg", "value": 432, "unit": "µM"}, {"measurement": "concentration at 338 h", "setting": "Patient 023, 600 mg", "value": 495, "unit": "µM"}, {"measurement": "concentration at 339 h", "setting": "Patient 023, 600 mg", "value": 613, "unit": "µM"}, {"measurement": "concentration at 340 h", "setting": "Patient 023, 600 mg", "value": 636, "unit": "µM"}, {"measurement": "concentration at 360 h", "setting": "Patient 023, 600 mg", "value": 616, "unit": "µM"}, {"measurement": "concentration at 2 h", "setting": "Patient 024, 600 mg", "value": 91.6, "unit": "µM"}, {"measurement": "concentration at 3 h", "setting": "Patient 024, 600 mg", "value": 188, "unit": "µM"}, {"measurement": "concentration at 4 h", "setting": "Patient 024, 600 mg", "value": 283, "unit": "µM"}]}
